The results in this text go back to ChEMBL document CHEMBL5291721, “A preclinical secondary pharmacology resource illuminates target-adverse drug reaction associations of marketed drugs” (Nat Commun, 2023).

Some targets named below: Motilin receptor (Homo sapiens, UniProt O43193); Adenosine receptor A2a (Homo sapiens, UniProt P29274); D(3) dopamine receptor (Homo sapiens, UniProt P35462).
In experiment [1] the target is Delta-type opioid receptor (Homo sapiens, UniProt P41143).
Experiment [2] has as its target T1, Equilibrative nucleoside transporter 1 (Homo sapiens, UniProt Q99808).
T1 sequence (Q99808 whole entry): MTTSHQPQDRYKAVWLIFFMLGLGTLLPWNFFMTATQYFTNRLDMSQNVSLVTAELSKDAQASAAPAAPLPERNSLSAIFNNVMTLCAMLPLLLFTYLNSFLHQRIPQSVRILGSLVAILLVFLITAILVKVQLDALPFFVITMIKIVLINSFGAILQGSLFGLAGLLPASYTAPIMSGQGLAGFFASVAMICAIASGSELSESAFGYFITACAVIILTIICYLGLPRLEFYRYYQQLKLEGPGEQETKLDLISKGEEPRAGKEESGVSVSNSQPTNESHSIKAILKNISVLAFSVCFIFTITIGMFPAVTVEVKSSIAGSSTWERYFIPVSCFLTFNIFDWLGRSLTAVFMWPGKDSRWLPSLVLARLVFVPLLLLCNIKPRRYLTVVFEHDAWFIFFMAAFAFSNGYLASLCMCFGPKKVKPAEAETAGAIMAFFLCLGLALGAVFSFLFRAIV

Experiment [3] concerns the target Sodium-dependent dopamine transporter (Homo sapiens, UniProt Q01959).
Experiment [4] deals with T2, Alpha-2A adrenergic receptor (Homo sapiens, UniProt P08913).
T2 sequence (P08913 whole entry): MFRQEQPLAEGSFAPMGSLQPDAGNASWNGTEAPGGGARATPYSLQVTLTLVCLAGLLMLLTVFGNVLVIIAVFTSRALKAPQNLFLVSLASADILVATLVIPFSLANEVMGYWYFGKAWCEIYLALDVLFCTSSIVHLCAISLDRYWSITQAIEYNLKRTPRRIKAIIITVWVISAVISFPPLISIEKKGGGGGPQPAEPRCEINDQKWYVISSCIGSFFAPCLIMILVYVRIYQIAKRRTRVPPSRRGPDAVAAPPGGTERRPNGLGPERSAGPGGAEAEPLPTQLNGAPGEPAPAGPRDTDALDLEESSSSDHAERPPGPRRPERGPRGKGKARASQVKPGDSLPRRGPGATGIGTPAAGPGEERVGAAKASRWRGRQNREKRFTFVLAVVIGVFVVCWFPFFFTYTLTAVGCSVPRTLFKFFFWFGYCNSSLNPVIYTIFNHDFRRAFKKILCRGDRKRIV
It is filed as functional, cell-based.

Experiment [5] has as its target cGMP-inhibited 3',5'-cyclic phosphodiesterase 3A (Homo sapiens, UniProt Q14432). In kind it is functional.
Experiment [6] has as its target Voltage-gated inwardly rectifying potassium channel KCNH2 (Homo sapiens, UniProt Q12809). It is filed as functional. The conditions noted are these: read-out: AC50.
The target in experiment [7] is Growth hormone secretagogue receptor type 1 (Homo sapiens, UniProt Q92847).
Experiment [8] addresses T3, 5-hydroxytryptamine receptor 2C (Homo sapiens, UniProt P28335).
T3 sequence (P28335 whole entry): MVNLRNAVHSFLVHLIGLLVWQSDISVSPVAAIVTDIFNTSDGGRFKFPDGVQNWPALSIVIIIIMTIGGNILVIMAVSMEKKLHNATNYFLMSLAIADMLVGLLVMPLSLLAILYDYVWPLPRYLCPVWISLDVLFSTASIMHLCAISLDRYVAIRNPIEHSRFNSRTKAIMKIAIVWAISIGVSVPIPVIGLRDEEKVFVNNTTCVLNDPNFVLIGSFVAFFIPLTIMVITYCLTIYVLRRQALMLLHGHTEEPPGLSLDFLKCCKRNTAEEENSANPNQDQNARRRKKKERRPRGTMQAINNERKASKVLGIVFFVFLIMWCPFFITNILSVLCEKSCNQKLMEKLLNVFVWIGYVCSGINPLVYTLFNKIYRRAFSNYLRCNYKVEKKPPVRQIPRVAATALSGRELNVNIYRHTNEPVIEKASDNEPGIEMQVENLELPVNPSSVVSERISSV

Experiment [9] has as its target Sodium-dependent noradrenaline transporter (Homo sapiens, UniProt P23975).
For experiment [10], the target named is 3',5'-cyclic-AMP phosphodiesterase 4D (Homo sapiens, UniProt Q08499). It is filed as functional.
The target of experiment [11] is T4, 5-hydroxytryptamine receptor 1A (Homo sapiens, UniProt P08908).
T4 sequence (P08908 whole entry): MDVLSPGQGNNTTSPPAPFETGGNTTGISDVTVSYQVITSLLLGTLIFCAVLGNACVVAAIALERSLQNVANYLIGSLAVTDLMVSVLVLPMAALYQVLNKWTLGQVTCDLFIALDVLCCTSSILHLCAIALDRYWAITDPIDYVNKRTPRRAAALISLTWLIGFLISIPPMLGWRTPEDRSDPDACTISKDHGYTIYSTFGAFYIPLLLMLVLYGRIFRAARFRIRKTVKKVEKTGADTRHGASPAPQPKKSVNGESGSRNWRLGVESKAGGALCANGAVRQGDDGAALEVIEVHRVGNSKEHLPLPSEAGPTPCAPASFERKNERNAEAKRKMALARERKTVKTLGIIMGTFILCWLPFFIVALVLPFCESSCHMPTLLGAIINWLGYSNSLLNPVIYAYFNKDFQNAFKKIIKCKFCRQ
It is filed as functional, cell-based.
Note: assay procedure not described here.

D(3) dopamine receptor, sequence (P35462 whole entry): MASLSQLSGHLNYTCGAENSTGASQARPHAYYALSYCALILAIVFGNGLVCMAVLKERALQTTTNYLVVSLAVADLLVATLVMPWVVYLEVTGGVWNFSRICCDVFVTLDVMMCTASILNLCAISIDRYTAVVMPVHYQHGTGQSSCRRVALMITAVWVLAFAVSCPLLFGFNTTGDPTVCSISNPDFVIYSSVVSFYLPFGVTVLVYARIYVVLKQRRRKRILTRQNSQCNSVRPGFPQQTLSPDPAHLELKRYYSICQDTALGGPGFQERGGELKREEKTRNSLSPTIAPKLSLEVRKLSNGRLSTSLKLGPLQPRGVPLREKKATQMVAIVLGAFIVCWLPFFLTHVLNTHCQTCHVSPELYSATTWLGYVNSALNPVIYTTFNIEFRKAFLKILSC
Delta-type opioid receptor, sequence (P41143 whole entry): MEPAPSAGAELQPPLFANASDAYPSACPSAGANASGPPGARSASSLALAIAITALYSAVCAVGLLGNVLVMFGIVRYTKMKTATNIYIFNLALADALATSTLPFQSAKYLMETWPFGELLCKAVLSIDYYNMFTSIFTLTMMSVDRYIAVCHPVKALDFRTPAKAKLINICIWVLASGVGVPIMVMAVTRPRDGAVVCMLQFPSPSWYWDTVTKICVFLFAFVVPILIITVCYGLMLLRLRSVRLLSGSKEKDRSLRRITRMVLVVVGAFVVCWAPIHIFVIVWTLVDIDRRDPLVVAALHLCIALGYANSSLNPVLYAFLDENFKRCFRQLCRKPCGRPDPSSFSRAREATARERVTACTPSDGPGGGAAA
Adenosine receptor A2a, sequence (P29274 whole entry): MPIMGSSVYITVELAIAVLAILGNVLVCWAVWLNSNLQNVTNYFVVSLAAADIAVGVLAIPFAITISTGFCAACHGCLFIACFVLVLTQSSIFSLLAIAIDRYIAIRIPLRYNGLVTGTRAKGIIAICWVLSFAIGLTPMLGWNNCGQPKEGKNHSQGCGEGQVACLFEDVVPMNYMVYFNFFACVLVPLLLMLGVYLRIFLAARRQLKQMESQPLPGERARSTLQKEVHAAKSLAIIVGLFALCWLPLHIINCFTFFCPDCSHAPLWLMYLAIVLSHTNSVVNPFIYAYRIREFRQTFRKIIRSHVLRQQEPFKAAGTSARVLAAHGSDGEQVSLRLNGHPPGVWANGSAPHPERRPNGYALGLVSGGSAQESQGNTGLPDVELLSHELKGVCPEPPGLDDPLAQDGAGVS
Motilin receptor, sequence (O43193 whole entry): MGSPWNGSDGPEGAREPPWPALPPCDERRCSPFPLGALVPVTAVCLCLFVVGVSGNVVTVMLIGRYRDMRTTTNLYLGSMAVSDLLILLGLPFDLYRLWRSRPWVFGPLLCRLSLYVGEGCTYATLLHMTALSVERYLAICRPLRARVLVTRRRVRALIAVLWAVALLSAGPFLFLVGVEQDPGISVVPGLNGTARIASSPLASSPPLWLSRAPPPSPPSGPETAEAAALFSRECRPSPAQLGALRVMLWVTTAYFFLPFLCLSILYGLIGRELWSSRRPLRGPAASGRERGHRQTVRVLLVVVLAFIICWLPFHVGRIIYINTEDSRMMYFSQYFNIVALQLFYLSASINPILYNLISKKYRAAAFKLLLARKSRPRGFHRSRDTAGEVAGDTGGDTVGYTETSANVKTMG
Voltage-gated inwardly rectifying potassium channel KCNH2, sequence (Q12809 whole entry): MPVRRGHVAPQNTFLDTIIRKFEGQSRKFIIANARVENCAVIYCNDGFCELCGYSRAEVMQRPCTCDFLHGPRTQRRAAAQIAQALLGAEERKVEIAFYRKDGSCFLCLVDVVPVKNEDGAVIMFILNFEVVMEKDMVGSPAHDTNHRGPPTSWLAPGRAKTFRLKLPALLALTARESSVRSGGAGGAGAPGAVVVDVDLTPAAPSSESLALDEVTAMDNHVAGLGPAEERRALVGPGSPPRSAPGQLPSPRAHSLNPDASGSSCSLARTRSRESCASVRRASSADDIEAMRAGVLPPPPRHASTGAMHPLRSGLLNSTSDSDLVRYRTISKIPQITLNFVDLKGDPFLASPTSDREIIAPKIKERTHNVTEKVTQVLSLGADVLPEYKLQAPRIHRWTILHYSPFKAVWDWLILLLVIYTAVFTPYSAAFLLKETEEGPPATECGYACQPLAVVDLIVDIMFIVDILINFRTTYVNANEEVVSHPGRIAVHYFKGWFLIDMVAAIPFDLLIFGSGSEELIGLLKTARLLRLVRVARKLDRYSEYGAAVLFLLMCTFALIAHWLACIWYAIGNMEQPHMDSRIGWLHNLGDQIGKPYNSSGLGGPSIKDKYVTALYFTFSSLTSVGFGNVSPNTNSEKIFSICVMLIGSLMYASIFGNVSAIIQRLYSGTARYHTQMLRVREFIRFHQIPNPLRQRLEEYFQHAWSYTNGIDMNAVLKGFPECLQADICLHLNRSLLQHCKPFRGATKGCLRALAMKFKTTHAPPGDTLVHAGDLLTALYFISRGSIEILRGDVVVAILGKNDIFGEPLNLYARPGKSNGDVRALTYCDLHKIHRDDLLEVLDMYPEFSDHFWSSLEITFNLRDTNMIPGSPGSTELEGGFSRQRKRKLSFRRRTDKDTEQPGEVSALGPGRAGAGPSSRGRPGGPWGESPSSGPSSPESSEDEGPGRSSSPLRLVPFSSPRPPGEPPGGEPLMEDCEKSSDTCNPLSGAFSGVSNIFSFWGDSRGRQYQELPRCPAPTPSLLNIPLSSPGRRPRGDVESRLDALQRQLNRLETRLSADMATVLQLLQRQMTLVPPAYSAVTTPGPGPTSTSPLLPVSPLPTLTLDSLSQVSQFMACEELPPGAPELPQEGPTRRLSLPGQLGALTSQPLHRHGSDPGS
Sodium-dependent noradrenaline transporter, sequence (P23975 whole entry): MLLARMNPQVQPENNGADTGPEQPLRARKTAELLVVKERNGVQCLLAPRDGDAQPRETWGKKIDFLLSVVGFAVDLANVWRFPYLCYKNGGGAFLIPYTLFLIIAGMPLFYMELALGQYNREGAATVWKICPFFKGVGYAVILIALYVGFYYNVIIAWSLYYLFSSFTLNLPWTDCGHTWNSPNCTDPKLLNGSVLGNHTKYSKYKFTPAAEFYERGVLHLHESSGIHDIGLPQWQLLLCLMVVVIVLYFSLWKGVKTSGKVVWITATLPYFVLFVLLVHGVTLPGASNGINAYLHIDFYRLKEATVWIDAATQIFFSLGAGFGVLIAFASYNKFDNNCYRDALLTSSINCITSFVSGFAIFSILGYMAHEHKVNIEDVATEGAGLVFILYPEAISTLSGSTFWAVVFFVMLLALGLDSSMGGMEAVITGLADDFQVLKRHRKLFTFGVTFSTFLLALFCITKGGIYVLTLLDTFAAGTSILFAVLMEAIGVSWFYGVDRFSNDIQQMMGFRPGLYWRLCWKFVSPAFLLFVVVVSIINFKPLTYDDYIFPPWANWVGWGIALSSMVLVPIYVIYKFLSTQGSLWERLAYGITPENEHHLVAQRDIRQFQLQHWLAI
Sodium-dependent dopamine transporter, sequence (Q01959 whole entry): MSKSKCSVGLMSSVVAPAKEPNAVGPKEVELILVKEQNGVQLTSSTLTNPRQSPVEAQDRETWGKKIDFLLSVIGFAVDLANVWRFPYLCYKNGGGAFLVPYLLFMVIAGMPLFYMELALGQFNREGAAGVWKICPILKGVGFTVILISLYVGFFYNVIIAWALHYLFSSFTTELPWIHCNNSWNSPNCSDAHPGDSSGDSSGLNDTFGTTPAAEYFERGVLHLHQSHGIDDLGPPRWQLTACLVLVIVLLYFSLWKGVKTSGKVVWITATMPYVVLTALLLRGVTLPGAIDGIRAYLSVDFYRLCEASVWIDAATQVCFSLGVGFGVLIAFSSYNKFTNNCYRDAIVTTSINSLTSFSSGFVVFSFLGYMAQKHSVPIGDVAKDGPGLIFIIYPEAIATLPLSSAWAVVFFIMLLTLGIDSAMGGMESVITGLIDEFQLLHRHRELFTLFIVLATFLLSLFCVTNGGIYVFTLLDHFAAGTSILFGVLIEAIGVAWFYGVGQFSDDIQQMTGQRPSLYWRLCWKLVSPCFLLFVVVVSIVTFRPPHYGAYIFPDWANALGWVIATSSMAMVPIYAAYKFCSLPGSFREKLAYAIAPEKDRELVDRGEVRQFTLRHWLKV
Growth hormone secretagogue receptor type 1, sequence (Q92847 whole entry): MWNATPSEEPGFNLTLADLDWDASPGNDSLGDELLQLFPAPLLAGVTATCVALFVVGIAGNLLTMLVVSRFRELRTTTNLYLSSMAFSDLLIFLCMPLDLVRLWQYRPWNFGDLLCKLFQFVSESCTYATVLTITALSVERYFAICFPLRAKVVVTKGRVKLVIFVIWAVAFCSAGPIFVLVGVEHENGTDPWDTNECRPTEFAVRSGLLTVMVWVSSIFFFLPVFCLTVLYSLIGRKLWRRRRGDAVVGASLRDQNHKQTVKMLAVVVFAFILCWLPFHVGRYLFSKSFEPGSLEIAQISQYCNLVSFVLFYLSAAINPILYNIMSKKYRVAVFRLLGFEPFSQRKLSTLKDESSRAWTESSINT

`Cc1ccc(C(=O)c2cc(O)c(O)c([N+](=O)[O-])c2)cc1` [TOLCAPONE]: the AC50 in [1] was above 30 µM; in [2], above 30 µM; in experiment [3], 1.1 µM; on Motilin receptor, above 10 µM; in experiment [4], above 10 µM; in experiment [5], 18 µM. For the same molecule, the concentration at half-maximal activity (AC50) in [6] was 1.95 µM; in experiment [7], above 10 µM; at Adenosine receptor A2a it was above 30 µM; in experiment [8], above 10 µM; at D(3) dopamine receptor, above 30 µM; in experiment [9] it was 12.9 µM. Also, the values for the AC50 in experiment [10] and in experiment [11] were above 30 µM and above 10 µM, respectively.

Turning to `CS(=O)(=O)c1ccc([C@@H](O)[C@@H](CO)NC(=O)C(Cl)Cl)cc1` [THIAMPHENICOL], the half-maximal activity concentration (AC50) (in [1]; in [2]; in [3]; on Motilin receptor; in experiment [4]; in experiment [5]) was above 30 µM each time. Besides, the AC50 (in experiment [6]; in experiment [7]; on Adenosine receptor A2a; in [8]; on D(3) dopamine receptor; in experiment [9]) was above 30 µM in each case. In addition, the AC50 in [10] and in experiment [11] was above 30 µM each time.

With `CCOC(=O)[C@H](CCc1ccccc1)N[C@@H](C)C(=O)N1CCC[C@H]1C(=O)O`, the AC50 was above 10 µM in [1]; above 30 µM in experiment [2]; above 10 µM in experiment [3]; above 10 µM at Motilin receptor; above 10 µM in [4]; above 10 µM in experiment [5]. Also, the AC50 was above 30 µM in [6]; above 30 µM in [7]; above 30 µM at Adenosine receptor A2a; above 10 µM in experiment [8]; above 10 µM on D(3) dopamine receptor; above 10 µM in experiment [9]. The AC50 in experiment [10] and in [11] was above 10 µM each time.

On to `NC(=O)c1ncn([C@@H]2O[C@H](CO)[C@@H](O)[C@H]2O)c1O` [MIZORIBINE], for which the AC50 (in [1]; in [2]; in [3]; on Motilin receptor; in [4]; in experiment [5]) was above 30 µM throughout. The AC50 (in [6]; in experiment [7]; on Adenosine receptor A2a; in experiment [8]; on D(3) dopamine receptor; in experiment [9]) was above 30 µM each time. In addition, the AC50 in experiment [10] and in [11] was above 30 µM each time.

In the case of `C[C@@H]1O[C@@H]1P(=O)(O)O` [FOSFOMYCIN], the AC50 in experiment [1] is above 30 µM; in [2], above 10 µM; in experiment [3], above 10 µM; on Motilin receptor, above 10 µM; in experiment [4] it was above 10 µM; in experiment [5], above 30 µM. Also, the AC50 is above 30 µM in [6]; above 10 µM in [7]; above 10 µM at Adenosine receptor A2a; above 30 µM in experiment [8]; above 30 µM on D(3) dopamine receptor; above 10 µM in [9]. For the same molecule, the AC50 in experiment [10] was above 30 µM; in experiment [11], above 10 µM.

For the molecule `NC[C@H]1CC[C@H](C(=O)O)CC1` [TRANEXAMIC ACID], the AC50 in experiment [1] was above 30 µM; in experiment [2] it was above 10 µM; in experiment [3] it was above 10 µM; at Motilin receptor it was above 10 µM; in [4], above 10 µM; in experiment [5] it was above 30 µM. Besides, the AC50 in experiment [6] was above 30 µM; in [7] it was above 10 µM; at Adenosine receptor A2a, above 10 µM; in experiment [8] it was above 30 µM; on D(3) dopamine receptor, above 30 µM; in experiment [9], above 10 µM. Besides, the AC50 in [10] is above 30 µM; in experiment [11], above 10 µM.

Take `CC(C)NCC(O)COc1ccc(COCCOC(C)C)cc1` (stereo not given) [BISOPROLOL]: the AC50 was above 10 µM in experiment [1]; above 30 µM in experiment [2]; above 10 µM in [3]; above 10 µM at Motilin receptor; above 10 µM in experiment [4]; above 30 µM in experiment [5]. Moreover, the half-maximal activity concentration (AC50) in [6] is above 30 µM; in experiment [7] it was above 30 µM; at Adenosine receptor A2a it was above 30 µM; in experiment [8], above 30 µM; at D(3) dopamine receptor it was above 30 µM; in [9] it was above 10 µM. Further, the figures for the AC50 in [10] and in experiment [11] were above 30 µM and above 10 µM, respectively.

Take `C[C@H]1C[C@@H]2[C@H]([C@@H](O)C[C@@]3(C)[C@H]2CC[C@]3(O)C(=O)CO)[C@@]2(C)C=CC(=O)C=C12` [METHYLPREDNISOLONE]: the AC50 in experiment [1] is above 30 µM; in experiment [2], above 10 µM; in experiment [3] it was above 10 µM; at Motilin receptor, above 10 µM; in experiment [4], above 10 µM; in experiment [5] it was above 30 µM. The AC50 is above 30 µM in experiment [6]; above 10 µM in [7]; above 10 µM on Adenosine receptor A2a; above 30 µM in experiment [8]; above 30 µM on D(3) dopamine receptor; above 10 µM in experiment [9]. Besides, the AC50 in [10] is 16 µM; in experiment [11], above 10 µM.

Turning to `CC(=O)c1ccc2c(c1)N(CCCN1CCN(CCO)CC1)c1ccccc1S2` [ACETOPHENAZINE], the AC50 in experiment [1] is above 30 µM; in [2], above 30 µM; in experiment [3], 25 µM; on Motilin receptor, 27 µM; in experiment [4], above 30 µM; in experiment [5], above 30 µM. Also, the AC50 in experiment [6] is 2.3 µM; in experiment [7] it was above 30 µM; on Adenosine receptor A2a, above 30 µM; in experiment [8], above 30 µM; at D(3) dopamine receptor, 0.0044 µM; in experiment [9], 17 µM. Further, the AC50 in [10] and in [11] was above 30 µM each time.

Regarding `CC(C)NNC(=O)c1ccncc1` [IPRONIAZID], the AC50 (in experiment [1]; in experiment [2]; in experiment [3]; at Motilin receptor; in experiment [4]; in experiment [5]) was above 30 µM each time. Further, the AC50 (in experiment [6]; in experiment [7]; at Adenosine receptor A2a; in experiment [8]; on D(3) dopamine receptor; in [9]) was above 30 µM in each case. Besides, the AC50 in [10] and in experiment [11] was above 30 µM each time.
